In experiment [1] the test system is phospho-akt (Thr308) in PC-3 cells. Nature of the experiment: Inhibition of phospho-akt (Thr308) in PC-3 cells, MSD phospho-akt 308 ELISA kit. The settings on record: 2 hours, no serum, read-out: EC50. The format is cell-based. In a few lines:
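PC-3 cells (15,000/well, overnight in 10% FBS medium) treated 2 h with three-fold diluted compounds in serum-free medium; DMSO high and 5 μM wortmannin low controls. Lysates captured on BSA-blocked MSD plates overnight at 4 °C, then 1 h antibody detection at RT; phospho-Akt Thr308 read by MSD electrochemiluminescence.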
For orientation: An ELISA detects its analyte on a solid surface through an enzyme-linked reagent.

In the next experiment the target is PDK1 (Homo sapiens (Human), UniProt O15530). The experiment is described as follows: PDK1 kinase assay (coupled PDK1/AKT/FAM-crosstide assay, IMAP fluorescence polarization). The experiment is classed as biochemical. A digest of the protocol: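 Coupled cascade: 0.75 nM PDK1 (51-359) → 10 nM AKT2 (140-467-PIFtide) → 100 nM FAM-crosstide. ATP 40 μM, 25° C, 30 min. IMAP FP (ex 485/em 530), 2 h binding. ΔmP vs conc, 4-param fit.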
PDK1, sequence (O15530 51-359): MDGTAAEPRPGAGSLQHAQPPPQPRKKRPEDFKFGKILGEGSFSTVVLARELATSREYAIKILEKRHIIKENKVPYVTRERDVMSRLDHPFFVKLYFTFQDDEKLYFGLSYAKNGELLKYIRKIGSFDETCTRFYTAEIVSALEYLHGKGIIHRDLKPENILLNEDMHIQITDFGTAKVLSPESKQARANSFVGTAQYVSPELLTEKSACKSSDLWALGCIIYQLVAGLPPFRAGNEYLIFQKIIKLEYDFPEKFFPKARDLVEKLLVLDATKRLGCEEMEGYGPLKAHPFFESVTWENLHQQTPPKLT
For orientation: Fluorescence polarisation rises when a labelled molecule tumbles more slowly, as on binding a larger partner.

[2] abbreviates: Homo sapiens, inhibition of P308 Akt in PC-3 cells, MSD.
[3] abbreviates: inhibition of phospo-PDK1 in vitro.
[4] abbreviates: Homo sapiens, inhibition of P308 Akt in PC-3 cells using MSD.

Structures can show the parent of a compound that is named as a salt. Where two headings read alike, the source gives them in different places.

As usually defined, the EC50 is the concentration at which the effect is half-maximal. For orientation: IC50 means the concentration needed to halve the response being measured. Read a high IC50 as weaker potency in that assay. Take `NCCNS(=O)(=O)c1cnc(NCc2ccc(-c3ccc4ncnc(N)c4c3)s2)c(C(=O)NCc2ccc(F)c(F)c2)c1` [Example 8.6.13, 5-(N-(2-aminoethyl)sulfamoyl)-2-(((5-(4-aminoquinazolin-6-yl)thiophen-2-yl)methyl)amino)-N-(3,4-difluorobenzyl) nicotinamide]: the EC50 in experiment [1] (setting [2]) is over 10000 nM. The compound further displayed an IC50 against PDK1 (setting [3]) of 1000 to 5000 nM.

As for `C[C@@H](c1ccc(F)cc1)n1cnc2ccnc(NCc3ccc(-c4ccc5ncnc(N)c5c4)s3)c2c1=O` [Ex. 7.9], in experiment [1] (setting [2]), the EC50 is under 1000 nM. For the same compound, on PDK1 (setting [3]), the IC50 is under 100 nM.

For `C[C@H](NC(=O)c1cccnc1NCc1ccc(-c2cnc(N)cn2)cc1)c1ccc(F)c(F)c1` [Example 380, (S)-2-(4-(5-aminopyrazin-2-yl)benzylamino)-N-(1-(3,4-difluorophenyl)ethyl) nicotinamide], the EC50 in experiment [1] (setting [4]) is 1000 to 10000 nM. This compound also came in with an IC50 against PDK1 (inhibition of PDK1 in vitro) of 100 to 1000 nM.

In the case of `C[C@H](NC(=O)c1nc(C#N)cnc1NCc1ccc(-c2cnc(N)c(CC3CCNC3)n2)cc1)c1ccc(F)c(F)c1` (stereo partly drawn) [Example 187, 3-[4-(5-Amino-6-pyrrolidin-3-ylmethyl-pyrazin-2-yl)-benzylamino]-6-cyano-pyrazine-2-carboxylic acid [(S)-1-(3,4-difluoro-phenyl)-ethyl]-amide], the EC50 in experiment [1] (setting [4]) is under 1000 nM. Moreover, the IC50 against PDK1 (inhibition of PDK1 in vitro) was under 100 nM.

With `Nc1ncnc2ccc(-c3cnc(CNc4ncccc4C(=O)NCc4ccc(F)c(F)c4)s3)cc12` [Ex. 7.1], the EC50 in experiment [1] (setting [2]) is 1000 to 10000 nM. This compound also returned an IC50 against PDK1 (setting [3]) of 100 to 1000 nM.

In the case of `C[C@H](NC(=O)c1cccnc1NCc1ccc(-c2cnc3[nH]ncc3c2)cc1)c1ccc(F)cc1` [Example 392, N-[(S)-1-(4-Fluoro-phenyl)-ethyl]-2-[4-(1H-pyrazolo [3,4-b]pyridin-5-yl)-benzylamino]-nicotinamide], the EC50 in experiment [1] (setting [4]) was 1000 to 10000 nM. Further, the IC50 against PDK1 (inhibition of PDK1 in vitro) is under 100 nM.

In the case of `C[C@H](NC(=O)c1cccnc1NCc1ccc(-c2cc3c(cn2)nc(N)n3C)s1)c1ccc(F)cc1` [Example 2.23, (S)-2-(((5-(2-amino-1-methyl-1H-imidazo[4,5-c]pyridin-6-yl)thiophen-2-yl)methyl)amino)-N-(1-(4-fluorophenyl)ethyl) nicotinamide], the EC50 in experiment [1] (setting [2]) is over 10000 nM. On PDK1 (setting [3]), this compound came in with an IC50 of 1000 to 5000 nM.

Consider `Nc1n[nH]c2ncc(-c3ccc(CNc4ncc(C(F)(F)F)cc4C(=O)NCC4CCCO4)cc3)cc12` (centres unmarked) [Example 265, 2-(4-(3-amino-1H-pyrazolo [3,4-b]pyridin-5-yl)benzylamino)-N-((tetrahydrofuran-2-yl)methyl)-5-(trifluoromethyl) nicotinamide], for which the EC50 in experiment [1] (Homo sapiens, PC-3, 2 h, inhibition of P308 Akt in PC-3 cells using MSD) is 1000 to 10000 nM. For the same compound, the IC50 against PDK1 (inhibition of PDK1 in vitro) is under 100 nM.

As for `C[C@H](NC(=O)c1cc(C(F)(F)F)cnc1NCc1ccc(-c2cc3c(N)ncnc3cn2)s1)c1ccc(F)c(F)c1` [Example 8.12.8, 2-({[5-(4-aminopyrido [3,4-d]pyrimidin-6-yl)thiophen-2-yl]methyl}amino)-N-[(1S)-1-(3,4-difluorophenyl)ethyl]-5-(trifluoromethyl) pyridine-3-carboxamide], the EC50 in experiment [1] (setting [2]) was in the range of 1000 to 10000 nM. On PDK1 (setting [3]), this compound yielded an IC50 of 100 to 1000 nM.

Take `C[C@H](NC(=O)c1cc(C#N)cnc1NCc1ccc(-c2cnc3[nH]nc(N)c3n2)cc1)c1ccc(F)cc1` [Example 183, 2-[4-(3-Amino-1H-pyrazolo [3,4-b]pyrazin-5-yl)-benzylamino]-5-cyano-N-[(S)-1-(4-fluoro-phenyl)-ethyl]-nicotinamide]: the EC50 in experiment [1] (setting [4]) was under 1000 nM. Moreover, the IC50 against PDK1 (inhibition of PDK1 in vitro) was under 100 nM.

Consider `Cn1ccc(Nc2ncnc3ccc(-c4ccc(CNc5ncccc5C(=O)NCc5ccc(F)c(F)c5)s4)cc23)n1` [Example 2.34, N-(3,4-difluorobenzyl)-2-(((5-(4-(1-methyl-1H-pyrazol-3-ylamino)quinazolin-6-yl)thiophen-2-yl)methyl)amino) nicotinamide], for which the EC50 in experiment [1] (setting [2]) was over 10000 nM. The IC50 against PDK1 (setting [3]) was over 5000 nM.

Consider `Nc1ncnc2ccc(-c3csc(CNc4ncccc4C(=O)NCc4ccc(F)c(F)c4)c3)cc12` [Ex. 6.14, 2-({[4-(4-aminoquinazolin-6-yl)thiophen-2-yl]methyl}amino)-N-(3,4-difluoro-benzyl) pyridine-3-carboxamide], for which the EC50 in experiment [1] (setting [2]) is 1000 to 10000 nM. This compound returned an IC50 on PDK1 (setting [3]) of under 100 nM.

`C[C@H](NC(=O)c1cc(C#N)cnc1NCc1ccc(-c2cnc(N)c(O[C@@H]3CCC[C@H]3N)n2)cc1)c1ccc(F)cc1` [Example 171, 2-{4-[5-Amino-6-((1R,2R)-2-amino-cyclopentyloxy)-pyrazin-2-yl]-benzylamino}-5-cyano-N-[(S)-1-(4-fluoro-phenyl)-ethyl]-nicotinamide]: the EC50 in experiment [1] (setting [4]) lay in the range of 1000 to 10000 nM. Besides, the IC50 at PDK1 (inhibition of PDK1 in vitro) was under 100 nM.

Take `CC(C)Oc1cc(CNc2ncccc2C(=O)NCc2ccc(F)c(F)c2)cc(-c2c[nH]c3ncncc23)c1` [Example 5.8, N-(3,4-difluorobenzyl)-2-{[3-(propan-2-yloxy)-5-(7H-pyrrolo[2,3-d]pyrimidin-5-yl)benzyl]amino}pyridine-3-carboxamide]: the EC50 in experiment [1] (setting [2]) lay in the range of 1000 to 10000 nM. This compound yielded an IC50 against PDK1 (setting [3]) of under 100 nM.

Regarding `Nc1ncnc2ccc(-c3ccc(CNc4ncc(NS(=O)(=O)C(F)(F)F)cc4C(=O)NCc4ccc(F)c(F)c4)s3)cc12` [Example 8.6.3], in experiment [1] (setting [2]), the EC50 lay within 1000 to 10000 nM. The compound further showed an IC50 against PDK1 (setting [3]) of 100 to 1000 nM.

For the compound `Cc1ccc(CNC(=O)c2cccnc2NCc2cc(OC(C)C)cc(-c3c[nH]c4ncc(C(=O)NC5CC5)cc34)c2)o1` [Example 4.1.14, N-cyclopropyl-3-[3-{[(3-{[(5-methylfuran-2-yl)methyl]carbamoyl}pyridin-2-yl)amino]methyl}-5-(propan-2-yloxy)phenyl]-1H-pyrrolo[2,3-b] pyridine-5-carboxamide], the EC50 in experiment [1] (setting [2]) fell in the range of 1000 to 10000 nM. Moreover, the IC50 against PDK1 (setting [3]) was under 100 nM.

Take `C[C@H](NC(=O)c1cc(C#N)cnc1NCc1ccc(-c2cnc(N)c(C(=O)NCC(O)CO)n2)cc1)c1ccc(F)cc1` (stereo partly drawn) [Example 347, 3-amino-6-(4-((5-cyano-3-((S)-1-(4-fluorophenyl)ethylcarbamoyl)pyridin-2-ylamino)methyl)phenyl)-N-(2,3-dihydroxypropyl) pyrazine-2-carboxamide]: the EC50 in experiment [1] (inhibition of P308 Akt in PC-3 cells using MSD) was under 1000 nM. This compound showed an IC50 against PDK1 (inhibition of PDK1 in vitro) of under 100 nM.

Consider `C[C@H](NC(=O)c1nc(C#N)cnc1NCc1ccc(-c2ccc(N)nn2)cc1)c1ccc(F)c(F)c1` [Example 409, (S)-3-(4-(6-aminopyridazin-3-yl)benzylamino)-6-cyano-N-(1-(3,4-difluorophenyl)ethyl)pyrazine-2-carboxamide], for which, in experiment [1] (setting [4]), the EC50 lay within 1000 to 10000 nM. Moreover, at PDK1 (inhibition of PDK1 in vitro), the IC50 is under 100 nM.

`Nc1ncnc2ccc(-c3ccc(CNc4ncc(C(=O)N5CCOCC5)cc4C(=O)NCc4ccc(F)c(F)c4)s3)cc12` [Example 7.24.6, 2-({[5-(4-aminoquinazolin-6-yl)thiophen-2-yl]methyl}amino)-N^3-(3,4-difluorobenzyl)-5-(morpholin-4-ylcarbonyl)pyridine-3-carboxamide]: in experiment [1] (setting [2]), the EC50 lay within 1000 to 10000 nM. This compound also returned an IC50 against PDK1 (setting [3]) of under 100 nM.

For the compound `CN1CCN(Cc2ccc(NC(=O)c3cc(C(F)(F)F)cnc3NCc3ccc(-c4cnc5[nH]nc(N)c5c4)cc3)cc2)CC1` [Example 285, 2-(4-(3-amino-1H-pyrazolo [3,4-b]pyridin-5-yl)benzylamino)-N-(4-((4-methylpiperazin-1-yl)methyl)phenyl)-5-(trifluoromethyl)nicotinamide], in experiment [1] (setting [4]), the EC50 is over 10000 nM. In addition, the IC50 against PDK1 (inhibition of PDK1 in vitro) lay in the range of 1000 to 5000 nM.

On to `CCCNS(=O)(=O)c1cnc(NCc2ccc(-c3ccc4ncnc(N)c4c3)s2)c(C(=O)NCc2ccc(F)c(F)c2)c1` [Example 8.6.9, 2-(((5-(4-aminoquinazolin-6-yl)thiophen-2-yl)methyl)amino)-N-(3,4-difluorobenzyl)-5-(N-propylsulfamoyl) nicotinamide], for which the EC50 in experiment [1] (setting [2]) lay within 1000 to 10000 nM. The same compound came in with an IC50 at PDK1 (setting [3]) of 100 to 1000 nM.

Consider `Nc1ncnc2ccc(-c3ccc(CNc4ncccc4C(=O)Nc4ccc(Cl)c(F)c4)s3)cc12` [Example 3.55, 2-({[5-(4-aminoquinazolin-6-yl)thiophen-2-yl]methyl}amino)-N-(4-chloro-3-fluorophenyl) pyridine-3-carboxamide (TFA salt)], for which the EC50 in experiment [1] (setting [2]) is over 10000 nM. Besides, the IC50 on PDK1 (setting [3]) is 100 to 1000 nM.

As for `Nc1ncnc2ccc(-c3ccc(CNc4ncccc4C(=O)NCc4cc(F)c(F)c(F)c4)s3)cc12` [Example 3.23, 2-({[5-(4-aminoquinazolin-6-yl)thiophen-2-yl]methyl}amino)-N-(3,4,5-trifluorobenzyl)pyridine-3-carboxamide (TFA salt)], the EC50 in experiment [1] (setting [2]) is under 1000 nM. In addition, the IC50 against PDK1 (setting [3]) is under 100 nM.

`CC(C)NC(=O)c1cccnc1NCc1cccc(-c2c[nH]c3ncccc23)c1` [Example 1.10, N-(propan-2-yl)-2-{[3-(1H-pyrrolo [2,3-b]pyridin-3-yl)benzyl]amino} pyridine-3-carboxamide]: the EC50 in experiment [1] (setting [2]) was in the range of 1000 to 10000 nM. For the same compound, the IC50 against PDK1 (setting [3]) was over 5000 nM.

`C[C@H](NC(=O)c1cc(C#N)cnc1NCc1ccc(-c2cnc(N)c(CCCCN)n2)cc1)c1ccc(F)cc1` [Example 71, 2-{4-[5-Amino-6-(4-amino-butyl)-pyrazin-2-yl]-benzyl-amino}-5-cyano-N-[(S)-1-(4-fluoro-phenyl)-ethyl]-nicotinamide]: the EC50 in experiment [1] (setting [4]) was under 1000 nM. In addition, the IC50 on PDK1 (inhibition of PDK1 in vitro) is under 100 nM.

For the origin of these results see patent publication US10030016B2 (Sunesis Pharmaceuticals, Inc., priority 2009, dated 2018).
